Data: patent publication US7914817B2, “Treatment of inflammatory bowel disease” (Ed. Geistlich Soehne AG fuer Chemische Industrie, priority 2000, dated 2011)

Experiments:
[1] = humans and animals, intravenous and intraperitoneal administration; cited from earlier work
[2] = metabolized to taurine, carbon dioxide and water; cited from earlier work
[3] = test system: gram positive and gram negative bacteria and fungi; conditions: cited from earlier work
[4] = test system: inflammatory response in intestinal mucosa in patients with active inflammatory bowel disease; assay: Oral taurolidine in patients with active IBD: inflammatory response in intestinal mucosa (Example 2); format: in vivo
Source text: This example evaluates the beneficial effect of oral administration of taurolidine on amelioration of inflammatory response in intestinal mucosa in patients with active inflammatory bowel disease. This Example measures proinflammatory cytokines, angiogenic cytokines, reactive oxygen species and nitric oxide in the mucosal biopsy cultures in patients with IBD pre- and post-taurolidine administration. Local mucosal recruited PMN and mononuclear leukocyte-associated proinflammatory cytokine and angiogenic cytokine expression in patients with IBD are assessed pre- and post-taurolidine treatment.
• 1) The specimens of standard intestinal mucosal biopsy are collected from patients with IBD on the day before taurolidine administration, and day 5 and day 10 after taurolidine administration, and incubated with completed culture medium for different time points. The supernatants from the biopsy cultures are harvested by centrifugation and stored at −80° C. for measurement of proinflammatory cytokines (TNF-α, IL-1β, IL-6), angiogenic cytokines (VEGF, TGF-β1), lipid peroxides (malonaldehyde), nitric oxide and peroxynitrite. • 2) The mononuclear leukocytes from the above specimens of mucosal biopsy are isolated using the technique of collagenase-digestion and density gradient sedimentation. […]

[5] = test system: systemic inflammatory response in patients with active inflammatory bowel disease; assay: Oral taurolidine in patients with active IBD: systemic inflammatory response (Example 1); format: in vivo; conditions: pre- vs post-administration (day 2, 5, 10)
Procedure: This experiment evaluates the beneficial effects of oral administration of taurolidine on attenuation of systemic inflammatory response in patients with active inflammatory bowel disease. This Example measures systemic proinflammatory and angiogenic cytokines, systemic reactive oxygen species and nitric oxide in patients with IBD pre- and post-taurolidine administration. Secondly, circulating PMN and monocytes from patients with IBD are assessed for their adhesion receptor expression, and their ability to release proinflammatory and angiogenic cytokines, as well as reactive oxygen species and nitric oxide following taurolidine treatment.
• 1) Peripheral venous blood samples are collected from patients on the day before taurolidine administration, and day 2, day 5 and day 10 after taurolidine administration. Serum samples are harvested by centrifugation and stored at −80° C. for measurement of serum levels of endotoxin, LPS binding protein (LBP), and soluble CD14, serum proinflammatory cytokines (TNF-α, IL-1β, IL-6), serum angiogenic cytokines (VEGF, TGF-β1), serum lipid peroxides (malonaldehyde), nitric oxide and peroxynitrite. • 2) Receptor expression of CD11a, CD11b, CD18, and CD14 on PMN and monocytes in the whole blood samples are assessed on the day before taurolidine administration, and day 2, day 5, and day 10 after taurolidine administration. […]

O=S1(=O)CCN(CN2CCS(=O)(=O)NC2)CN1 [Taurolidine, bis(1,1-dioxoperhydro-1,2,4-thiadiazin-4-yl)methane]
toxicity / side effects [1]: non-toxic to humans and animals and is free from side effects
half life [2]: short half life
antimicrobial activity [3]: broad spectrum of antimicrobial activity
pathological changes in intestinal mucosa ([4]; day before vs day 5 and day 10): improves pathological changes in intestinal mucosa
proinflammatory cytokines, angiogenic cytokines, reactive oxygen species, recruitment of PMN and mononuclear leukocytes in the intestinal mucosa ([4]; mucosal biopsy): downregulation
systemic proinflammatory and angiogenic cytokine levels, PMN and monocyte adhesion receptor expression, lipid peroxides, nitric oxide, peroxynitrite [5]: ameliorates these phenomena
